In patent US20250206773A1, “FORMS AND COMPOSITIONS OF SODIUM CHENODEOXYCHOLATE” (Syntis Bio, Inc., priority 2022, published 2025):

How the values were obtained:
Format in all cases: physicochemical
[1] = Exposure to moist air (RH 95%, room temperature), XRPD before/after
Method: FIG. 4 is a series of XRPD patterns, showing NaCDC Form A before (thick line) and after (thin line) 15 hours of exposure to RH 95% at room temperature. FIG. 8 is a series of XRPD patterns, showing NaCDC Form B before (thick line) and after (thin line) 15 hours of exposure to RH 95% at room temperature.

[2] = Heating of solid at 315° C. / 360° C., then XRPD and HPLC
Method: Based on the results obtained from the TG/DSC analysis, a sample of NaCDC Form B was heated at 315° C. and another sample at 360° C. After heating, the samples were cooled to room temperature and analyzed by XRPD (FIG. 16). […] The material obtained after heating a sample at 360° C. was amorphous.

[3] = Polymorph screening: slurry (XRPD, HPLC of recovered solids); details: slurry 7 days
Method: Around 15 mg of NaCDC Form B was weighted into HPLC vials, and the appropriate volume of solvent was added at RT. Slurries were aged for 7 days under stirring (500 rpm), at multiple temperatures: 5° C., 25-30° C., 40° C., and 50° C. All solids were air-dried on filter paper and then analyzed by XRPD. Depending on the results obtained by XRPD and material availability, some experiments were analyzed by HTPLC and TG/DSC.

[4] = Polymorph screening: slurry with sonication; details: sonicated 15 minutes then 5° C. for 30 minutes, 6 cycles
Method: Around 15 mg of NaCDC Form B was weighed into HPLC vials and 0.4 mL of corresponding solvents were added at RT. The slurries were sonicated for 15 minutes and then left to cool at 5° C. for 30 minutes—this cycle was repeated 6 times. At the end of the sixth cycle, all experiments were air-dried on filter paper and the recovered solids were analyzed by XRPD. Based on the XRPD data, some experiments were analyzed by HPLC.

[5] = Polymorph screening: slow evaporation
Method: Five stock solutions (with MeOH, water, 2,2,2-trifluoroethanol, MeOH:EtOAc (1:1 v/v) and MeOH:acetone (1:1 v/v)) were prepared with NaCDC Form B at RT. The final concentration of each solution was near that obtained from the Solubility Studies described in Example 8. Around 19-23 mg of NaCDC Form B was weighed into 1.6 mL HPLC vials (or 8 mL flask in the case of stock solutions with MeOH:EtOAc and MeOH:acetone) and dissolved in appropriate solvents at RT. In the case of the stock solution with water, around 40 mg NaCDC Form B was used. The experiments were kept at RT for 1 h with stirring (500 rpm) and then the solutions were filtered with 0.45 μm PTFE filters. During filtration of the stock solution with water, a foaming phenomenon was observed, and therefore, filtration was performed slowly and in several steps. The filtered solutions were then evaporated slowly under atmospheric pressure at 25° C. (experiments EV01-05) or at 50° C. (experiments EV06-09). After complete evaporation of the solvent, the solids were recovered and analyzed by XRPD. Depending on the results obtained from the XRPD analysis and also material availability, some experiments were analyzed by HPLC and TG/DSC.

[6] = Intrinsic dissolution, USP rotating disk apparatus
Method: For the intrinsic dissolution studies, the following HPLC method was used: [table] Intrinsic dissolution profiles of NaCDC Form A and Form B were determined from a drug disk of constant surface area using a USP rotating disk apparatus in phosphate buffer (pH 7.4) at 37° C. […] A typical apparatus consisted of a punch and a die, whose base is attached to a surface plate. […] The punch was then inserted in the die cavity and the test material was compressed with a hydraulic press. A non-disintegrating compact of the material was formed in the die cavity with a single face of defined area exposed on the bottom of the die. The die assembly was then attached to a shaft with a holder and the surface plate was removed. The shaft holding the die assembly was positioned into the dissolution medium at a distance not less than 1.0 cm from the bottom of the vessel. In this procedure, fluid flow was generated by the rotation of the die. The amount of material dissolved was measured as a function of time. In particular, the cumulative amount dissolved at each time point was corrected for losses due to sampling. […] Method parameters are summarized below: [table]

[7] = Dynamic vapor sorption (DVS) hygroscopicity; details: 25° C.
Method: DVS measurements were performed with a SMS—DVS Intrinsic. The sample size was about 50 mg, accurately weighed. The measurement was performed at 25° C., the relative humidity (RH) range investigated was 40-90-0-90% RH with 10% RH steps. After each RH change, the mass of the sample was allowed to stabilize (waiting time 10 to 60 minutes, stabilization criterion ≤0.002 g for 10 minutes). The hygroscopicity of the sample was calculated as follows: [formula] • where: • W1: weight of sample at the start of the experiment (25° C. and 40% RH) • W2: weight of sample at 25° C. and 80% RH in the first sorption cycle High Pressure Liquid Chromatography (HPLC)

[8] = SL70, Methyl ethyl ketone (MEK), 50° C.
[9] = EV07, 2,2,2-Trifluoroethanol (TFE) 50.88 mg/mL, solids after 4 days at 50° C. and atm. pres.

Structure (SMILES): C[C@H](CCC(=O)[O-])[C@H]1CC[C@H]2[C@@H]3[C@H](O)C[C@@H]4C[C@H](O)CC[C@]4(C)[C@H]3CC[C@]12C.[Na+] [Form B, sodium chenodeoxycholate]
- effect of exposure to moist air (XRPD) ([1]; 15-20 hours at 95% humidity): eventual amorphization
- loss of crystallinity on moist air exposure compared with Form A ([1]; 95% humidity): markedly slower
- XRPD after heating ([2]; heated at 315° C.): different diffractogram than the starting material
- XRPD after heating ([2]; heated at 360° C.): amorphous
- HPLC purity after heating ([2]; sample heated at 315° C., cooled to room temperature): 66.9%
- HPLC purity (%) at 212 nm ([3]; SL01, Ethanol (EtOH), 5° C.): 89.70%
- XRPD ([3]; SL05, Methylcyclohexane, 5° C.): SM, P.O.
- XRPD ([3]; SL06, n-Heptane, 5° C.): SM, l.c.
- HPLC purity (%) at 212 nm ([3]; SL13, tert-Butyl methyl ether, 5° C.): 87.21%
- XRPD ([3]; SL15, Tetrahydrofuran (THF), 5° C.): SM, l.c.
- XRPD ([3]; SL19, Acetonitrile (MeCN), 5° C.): SM, l.c.
- HPLC purity (%) at 212 nm ([3]; SL22, EtOH:MeCN (1:1 v/v), 5° C.): 91.93%
- HPLC purity (%) at 212 nm ([3]; SL23, EtOH:n-Heptane (1:1 v/v), 5° C.): 93.64%
- HPLC purity (%) at 212 nm ([3]; SL26, Ethanol (EtOH), 25-30° C.): 92.34%
- HPLC purity (%) at 212 nm ([3]; SL27, 2-Propanol (2-PrOH), 25-30° C.): 88.33%
- XRPD ([3]; SL28, 2-Methyl-1-propanol (Isobutanol), 25-30° C.): l.c., SM
- XRPD ([3]; SL29, 2-Butanol, 25-30° C.): SM, l.c.
- XRPD ([3]; SL31, Methylcyclohexane, 25-30° C., solvent almost evap./consumed on the 7th day): SM, l.c.
- HPLC purity (%) at 212 nm ([3]; SL39, tert-Butyl methyl ether, 25-30° C.): 84.05%
- XRPD ([3]; SL41, Tetrahydrofuran (THF), 25-30° C.): SM, l.c.
- HPLC purity (%) at 212 nm ([3]; SL48, EtOH:MeCN (1:1 v/v), 25-30° C.): 83.87%
- HPLC purity (%) at 212 nm ([3]; SL49, EtOH:n-Heptane (1:1 v/v), 25-30° C.): 93.06%
- HPLC purity (%) at 212 nm ([3]; SL52, Ethanol (EtOH), 40° C.): 87.98%
- HPLC purity (%) at 212 nm ([3]; SL56, 2-Propanol (2-PrOH), 50° C.): 84.92%
- XRPD ([3]; SL60, n-Heptane, 50° C., solvent almost evap./consumed on 7th day): l.c., SM
- HPLC purity (%) at 212 nm ([3]; SL68, Tetrahydrofuran (THF), 50° C.): 78.16%
- HPLC purity (%) at 212 nm [3, 8]: 90.88%
- XRPD [3, 8]: SM, h.c.
- HPLC purity (%) at 212 nm ([3]; SL74, EtOH:MeCN (1:1 v/v), 50° C.): 78.36%
- HPLC purity (%) at 212 nm ([3]; SL75, EtOH:n-Heptane (1:1 v/v), 50° C.): 85.10%
- HPLC purity (%) at 212 nm ([4]; SLS03, Ethyl acetate (EtOAc)): 90.42%
- HPLC purity (%) at 212 nm ([4]; SLS08, EtOH:MeCN (1:1 v/v)): 79.23%
- HPLC purity (%) at 212 nm ([4]; SLS09, EtOH:n-Heptane (1:1 v/v)): 89.68%
- HPLC purity (%) at 212 nm ([5]; EV01, Methanol (MeOH) 100.80 mg/mL, solids after 4 days at 25-30° C. and atm. pres.): 91.70%
- HPLC purity (%) at 212 nm ([5]; EV02, Water (H2O) 204.39 mg/mL, solids after 5 days at 25-30° C. and atm. pres.): 93.71%
- HPLC purity (%) at 212 nm ([5]; EV03, 2,2,2-Trifluoroethanol (TFE) 50.88 mg/mL, solids after 7 days at 25-30° C. and atm. pres.): 88.27%
- HPLC purity (%) at 212 nm ([5]; EV04, MeOH:EtOAc (1:1 v/v) 20.49 mg/mL, solids after 4 days at 25-30° C. and atm. pres.): 86.46%
- HPLC purity (%) at 212 nm ([5]; EV05, MeOH:Acetone (1:1 v/v) 20.19 mg/mL, solids after 4 days at 25-30° C. and atm. pres.): 90.22%
- HPLC purity (%) at 212 nm ([5]; EV06, Water (H2O) 204.39 mg/mL, solids after several hours (overnight) at 50° C. and atm. pres.): 93.24%
- HPLC purity (%) at 212 nm [5, 9]: 91.69%
- XRPD [5, 9]: S4 + SM, P.O.
- HPLC purity (%) at 212 nm ([5]; EV08, MeOH:EtOAc (1:1 v/v) 20.49 mg/mL, solids after several hours (overnight) at 50° C. and atm. pres.): 71.43%
- HPLC purity (%) at 212 nm ([5]; EV09, MeOH:Acetone (1:1 v/v) 20.19 mg/mL, solids after 4 days at 50° C. and atm. pres.): 87.00%
- solid form after compression (XRPD) ([6]; 2 tons for 2 minutes): no change in solid form
- IDR (intrinsic dissolution rate) ([6]; USP phosphate buffer pH 7.4, 37° C., 100 rpm, disk 0.5024 cm^2): 0.9218 mg · min^−1 · cm^−2
- hygroscopicity by DVS [7]: slightly hygroscopic
- weight change in the first sorption cycle (DVS) ([7]; 40% RH to 80% RH): 0.8%
